Assay results published in the supplement of paper PMC7840683.
± gives the standard deviation of the averaged measurements.

Tested on: HepaRG
Experiment: LDH release cytotoxicity, % of total lysis control; higher = more cytotoxic
Conditions: 48 h
Summary of the method: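 Single-lot HepaRG cells in collagen I-coated 96-well plates were treated for 48 h in serum-free induction medium containing 0.5% DMSO with test chemicals in eight-point half-log series up to 100 µM. For total lysis, wells received 0.1% Triton X. LDH in 50 µL spent medium was assayed by resorufin fluorescence with CytoTox-ONE. Percent cytotoxicity was normalized to the on-plate vehicle and total lysis controls, with duplicates averaged.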

SMILES	LDH release cytotoxicity (0.03162 µM)	LDH release cytotoxicity (0.1 µM)	LDH release cytotoxicity (0.3162278 µM)	LDH release cytotoxicity (1 µM)	LDH release cytotoxicity (3.16228 µM)	LDH release cytotoxicity (10 µM)	LDH release cytotoxicity (31.6228 µM)	LDH release cytotoxicity (100 µM)	further results
CSC(C)(C)CN=O [Aldicarb oxime]	-1.16 ± 1.1%	-1.16 ± 0.73%	-0.361 ± 1.2%	0.251 ± 0.83%	-0.674 ± 0.8%	0.43 ± 0.56%	0.225 ± 0.043%	0.822 ± 0.091%	–
CC(C)COC(=O)c1ccccc1C(=O)OCC(C)C [Diisobutyl phthalate]	-2.33 ± 0.23%	-2.4 ± 0.15%	-2.25 ± 0.78%	-2.06 ± 0.78%	-2.34 ± 1.2%	-1.43 ± 1.4%	-2.53 ± 0.83%	-1.03 ± 1.3%	–
COc1cc(-c2ccc(N)c(OC)c2)ccc1N [3,3'-Dimethoxybenzidine]	-2.67 ± 0.52%	-2.03 ± 1.2%	-2.61 ± 0.54%	-2.72 ± 1.3%	-1.97 ± 0.08%	-2.38 ± 0.65%	-2.12 ± 0.23%	-0.532 ± 0.63%	–
C=C(C)C(=O)[O][Sn]([CH2]CCC)([CH2]CCC)[CH2]CCC [Tributyltin methacrylate]	-1.27 ± 0.67%	-1.27 ± 0.21%	-0.912 ± 0.44%	-1.5 ± 0.47%	37.9 ± 0.45%	56.38 ± 0.14%	55.58 ± 0.35%	59.2 ± 1.2%	–
O=C(O)Cc1cc(I)c(Oc2ccc(O)c(I)c2)c(I)c1 [Tiratricol]	1.48 ± 0.13%	1.09 ± 1.1%	1.5 ± 1.1%	0.13 ± 0.074%	0.965 ± 0.74%	0.402 ± 0.0063%	-0.312 ± 0.0079%	21.5 ± 18%	–
C=CCC1=C(C)C(OC(=O)C2C(C=C(C)C)C2(C)C)CC1=O (centres undefined) [S-Bioallethrin]	–	–	–	–	–	–	–	–	LDH release cytotoxicity (0.0147 µM): -2.51 ± 0.52%; LDH release cytotoxicity (0.0465 µM): -1.46 ± 0.56%; LDH release cytotoxicity (0.147046 µM): -1.76 ± 0.23%; LDH release cytotoxicity (0.465 µM): -2.13 ± 0.17%; LDH release cytotoxicity (1.4704591 µM): -1.73 ± 0.45%; LDH release cytotoxicity (4.65 µM): -1.51 ± 0.71%; LDH release cytotoxicity (14.7046 µM): -0.957 ± 0.95%; LDH release cytotoxicity (46.5 µM): 0.422 ± 0.55%
CC12C=CC3=C4CCC(=O)C=C4CCC3C1CCC2O (stereo not drawn) [17beta-Trenbolone]	-1.81 ± 0.85%	-1.96 ± 0.88%	-2.23 ± 1%	-1.89 ± 0.49%	-1.55 ± 0.47%	-1.02 ± 0.27%	-1.05 ± 0.63%	0.211 ± 0.55%	–
Clc1ccccc1C(c1ccccc1)(c1ccccc1)n1ccnc1 [Clotrimazole]	-0.964 ± 0.54%	-0.87 ± 0.1%	-1.49 ± 0.34%	-1.36 ± 0.98%	-0.966 ± 0.17%	4.28 ± 0.79%	11.6 ± 2.4%	82.1 ± 1.4%	–
Nc1ccc([N+](=O)[O-])cc1 [4-Nitroaniline]	-1.77 ± 1.4%	-2.08 ± 0.69%	-1.811 ± 0.018%	-1.58 ± 0.75%	-1.84 ± 0.43%	-0.905 ± 0.22%	0.842 ± 1.3%	-0.219 ± 0.45%	–
CNC(=O)Oc1cccc2ccccc12 [Carbaryl]	-0.447 ± 0.24%	-1.82 ± 1.5%	-1.28 ± 0.7%	-0.688 ± 1.2%	-0.561 ± 0.076%	0.0525 ± 0.91%	0.246 ± 1.1%	0.543 ± 0.82%	–
CN1CCN(Cc2cc(-c3ccc4nc(O)oc4c3)co2)C(c2ccc(F)cc2)C1 (centres undefined) [AVE8488]	-0.724 ± 0.27%	-1.47 ± 0.17%	-0.841 ± 0.31%	-0.702 ± 0.13%	-1.52 ± 0.25%	-0.46 ± 0.076%	0.998 ± 0.15%	9.54 ± 0.2%	–
CCCCC(CC)CN1C(=O)C2C3C=CC(C3)C2C1=O (centres undefined) [Octylbicycloheptenedicarboximide]	0.282 ± 1.1%	-0.366 ± 0.72%	-0.0268 ± 1.1%	-1.18 ± 0.3%	-0.584 ± 0.76%	-0.999 ± 0.41%	-1.23 ± 0.39%	8.34 ± 1%	–
Cc1cc(F)ccc1-c1cc(N2CCC(O)C2CO)ncc1N(C)C(=O)C(C)(C)c1cc(C(F)(F)F)cc(C(F)(F)F)c1 (centres undefined)	–	–	–	–	–	–	–	–	LDH release cytotoxicity (0.02577 µM): -0.371 ± 0.69%; LDH release cytotoxicity (0.0815 µM): -1.04 ± 0.056%; LDH release cytotoxicity (0.2577256 µM): -1.11 ± 0.12%; LDH release cytotoxicity (0.815 µM): -0.898 ± 0.74%; LDH release cytotoxicity (2.57726 µM): -1.2 ± 0.34%; LDH release cytotoxicity (8.15 µM): -1.08 ± 0.097%; LDH release cytotoxicity (25.7726 µM): 12.91 ± 0.041%; LDH release cytotoxicity (81.5 µM): 86.4 ± 2.3%
